Measured values from patent US9278067B2, “Encapsulation of plasmid DNA (lipogenes™) and therapeutic agents with nuclear localization signal/fusogenic peptide conjugates into targeted liposome complexes” (Regulon, Inc., priority 2000, dated 2016).

Assays:
complement system = details: cited from earlier work
[1] = test system: C-terminal fragments of the amyloid peptide; details: cited from earlier work
[2] = cell culture; cited from earlier work
isolated lysosomes = details: low concentrations of lipid; cited from earlier work
[3] = pH 7.4; cited from earlier work
luciferase = details: cited from earlier work
[4] = test system: K562 human erythroleukemia cell cultures; assay: Transfection of K562 cells with plasmid pCMVβ, beta-galactosidase reporter expression; type: cell-based; details: FIG. 2
neuronal cell = details: cited from earlier work
[5] = low concentrations (0.03-0.1 mM)
[6] = test system: several different types of cells; details: with monovalent cationic liposomal formulations (DC-Chol and lipofectin); cited from earlier work

Compound: poly(ethyleneimine)
- complement activation (complement system): Strong complement activation

Compound: apoE2: apolipoprotein E isoform
- inhibition of amyloid peptide fusogenic and aggregational properties [1]: potent inhibitors

Compound: poly-L-lysine
- efficiency of adenovirus-mediated gene transfer [2]: significantly increased

Compound: CCCCCCCC/C=C\CCCCCCCC(=O)OCC(C[N+](C)(C)C)OC(=O)CCCCCCC/C=C\CCCCCCCC.[Cl-] (centres unmarked) [DOTAP, N-(1-(2,3-dioleoyloxy)propyl)-N,N,N-trimethylammonium chloride]
- free activity of β-galactosidase of isolated lysosomes (membrane destabilization) (isolated lysosomes): striking increase in free activity of β-galactosidase
- charged fraction [3]: 100%
- increase of antisense activity of anti-luciferase oligonucleotide (luciferase): over 100 fold

Compound: polyhistidine
- DNA condensing reagent compared by level of expression of the reporter beta-galactosidase gene ([4]; 10 μg pCMVβ, polyK/polyR/polyH plus liposomes 7 nmoles/μg DNA): best DNA condensing reagent

Compound: CCCCCCCCCCCCCCOCC(C[N+](C)(C)CCO)OCCCCCCCCCCCCCC.[Br-] (centres unmarked) [DMRIE, N-[1-(2,3-dimyristyloxy)propyl]-N,N-dimethyl-N-(2-hydroxyethyl) ammonium bromide]
- charged fraction [3]: 100%

Compound: Non-aggregated amyloid beta-peptide (1-40): Alzheimer's beta-amyloid peptide 1-40, non-aggregated
- Properties: neuronal cell death (neuronal cell): Induces apoptotic neuronal

Compound: apoE4: apolipoprotein E isoform
- inhibition of amyloid peptide fusogenic and aggregational properties [1]: not apoE4

Compound: apoE3: apolipoprotein E isoform
- inhibition of amyloid peptide fusogenic and aggregational properties [1]: potent inhibitors

Compound: NCCCNCCCCNCCCN [Spermine]
- transfection efficiency [5]: enhanced significantly transfection efficiency

Compound: CCCCCCCCCCCCCCCCCCN(CCCCCCCCCCCCCCCCCC)C(=O)CNC(=O)C(CCCNCCCN)NCCCN (centres unmarked) [DOGS, Dioctadecylamidoglycylspermine]
- complement activation (complement system): Strong complement activation

Compound: Protamine sulfate
- plasmid delivery into cells in vitro [6]: enhanced plasmid delivery
- efficiency of adenovirus-mediated gene transfer [2]: significantly increased

Compound: CC(C)CCC[C@@H](C)[C@H]1CC[C@H]2[C@@H]3CC=C4C[C@@H](OC(=O)NCCN(C)C)CC[C@]4(C)[C@H]3CC[C@]12C [DC-cholesterol, 3β[N—(N′,N′-dimethylaminoethane)carbamoyl]cholesterol]
- cationic lipid compared by level of expression of the reporter beta-galactosidase gene ([4]; liposomes L2-L6 with DOPE): best cationic lipid
- charged fraction [3]: about 50%
